Results from paper PMC11272598, “RG7774 (Vicasinabin), an orally bioavailable cannabinoid receptor 2 (CB2R) agonist, decreases retinal vascular permeability, leukocyte adhesion, and ocular inflammation in animal models” (Frontiers in Pharmacology, 2024).

Experiments:
Human DAGL = Human DAGL assay (HaCaT cells); type: biochemical; details: positive control 10 µM
Protocol: (§1) Mouse brain or human HaCaT cells (CLS Cell Lines Service, GmbH, Eppelheim, Germany) were homogenized in 50 mM Tris-HCl (pH 7.4) using a glass potter, and homogenates were centrifuged at 4°C sequentially at 800 g (10 min) and 10,000 g (30 min). The final pellet (80–200 µg) was resuspended in 50 mM Tris-HCl (pH 7.4) containing 10 mM CaCl2 and incubated at 37°C for 30 min with sn-1[^14C]-stearoyl-2-arachidonoyl-glycerol (100 µM) (ARC, MO, USA). Reactions were stopped by adding chloroform/methanol (2:1, v/v), and the organic phase was dried and fractionated by thin-layer chromatography on silica gel, as previously reported. Levels of 1[^14C]-stearoyl acid radioactivity were determined by cutting the appropriate band from the gel and analyzing using a β-scintillation counter. Mouse cells were preincubated for 15 min with RG7774 (10 µM) and added to the incubation medium. Human cells were preincubated for 15 min with 8 different concentrations of RG7774 (0.1-500 µM) and added to the incubation medium. Control experiments were carried out in the presence of the selective DAGL inhibitor, D053 (10 µM).

Mouse DAGL = Mouse DAGL assay (brain); type: biochemical; details: positive control 10 µM
Protocol: as §1

Jurkat cells = experiment: xCELLigence impedance assay in Jurkat cells; type: cell-based, human; details: co-treatment with RG7774
Protocol: Background impedance was determined in 96-well RTCA E-plates (Agilent Technologies, Santa Clara, CA, United States) coated with 150 μg/mL fibronectin/H2O (Sigma-Aldrich, St. Louis, MO, United States) and containing 50 μL RPMI 1640 assay medium (Fisher Scientific, Schwerte, Germany) 31870) with 10% fetal calf serum (FCS). Jurkat cells (200,000 cells per well) were seeded in 100 μL of growth medium, allowed to settle for 30 min at RT, and cultured overnight at 37°C and 5% CO2. Dose-response curves were generated by adding increasing concentrations of RG7774 to seeded Jurkat cells and performing impedance measurements (xCelligence RTCA M, Agilent Technologies, Santa Clara, CA, United States) at baseline and 1 h after treatment. Displacement experiments were performed by incubating seeded Jurkat cells with 10 μM SR144528, a CB2R-selective antagonist (Tocris Bioscience, Bristol, United Kingdom) or 10 μM RO6851228 (a CB2R-selective inverse agonist; in-house synthesis) in assay medium overnight at 37°C and 5% CO2. Cells were re-treated with 10 μM SR144528 or […] for 1 h and stimulated with 233 nM RG7774 in assay medium. […] Displacement data are presented as the percentage of the maximal normalized cell index determined after antagonist/inverse agonist treatment relative to the percentage of the normalized cell index at 109 nM RG7774 treatment.

Human 12-LOX = target: T1, Human 12-LOX (Homo sapiens, UniProt P18054); experiment: Human 12-LOX assay; type: biochemical; details: positive control 100 µM
T1 construct: human platelet-derived 12-LOX; from tissue; host or cells: human platelets
Protocol: (§2) The inhibitory effects of different concentrations of RG7774 (0.1-500 µM) on the activities of human recombinant 5-LOX (Cayman Chemical Company #60402), 15-LOX (Cayman Chemical Company #10011263), and human platelet-derived 12-LOX were determined using the Biovision Lipoxygenase Activity Assay Kit (#BVN-K978-100). This kit converts the LOX substrate to an intermediate that reacted with the probe, generating a fluorescent product. The effect of RG7774 (preincubated for 15 min) at 10 µM on LOXs (5-LOX: 0.5 or 1.2 µg; 12-LOX: 20 µg; 15-LOX: 0.23 or 0.3 µg) was ascertained by adding the compounds directly to the incubation medium and the fluorescent signal, recorded at excitation/emission 500/536 nm at 30 sec intervals for 30-40 min, was directly proportional to LOX activity. […] The percentage of human 5-, 12-, and 15-LOX activity (control) was estimated from the amount of oxidized probe in the reaction using a standard curve.

Human 5-LOX = target: T2, Human 5-LOX (Homo sapiens, UniProt P09917); experiment: Human 5-LOX assay; type: biochemical; details: positive control 100 µM
T2 construct: purchased Cayman Chemical Company #60402
Protocol: as §2

Human EMT = Human EMT activity (HaCaT cells); type: cell-based; details: positive control 40 µM
Protocol: HaCaT cells were seeded (350,000–400,000 cell/well) in triplicate in 12-well plates and incubated for 15 min in PBS at 37°C with [^3H]-N-arachidonoylethanolamine ([^3H]-AEA) (400 nM) (ARC, MO, USA), as previously reported. Experiments were repeated at 4°C in order to subtract passive diffusion from EMT-mediated uptake. RG7774 (10 µM) was preincubated with labeled HaCaT cells for 15 min before adding directly to the incubation medium (PBS). The selective EMT inhibitor, OMDM-1 (40 µM), was used as positive control.

Human MAGL = target: T3, Human MAGL (Homo sapiens, UniProt Q99685); experiment: Human MAGL assay (U937 cell extracts); type: biochemical; details: positive control 100 nM
T3 construct: Mouse brain or human U937 cell extracts (ATCC, Manassas, VI, USA); host or cells: U937 cells, 100,000 g supernatant
Protocol: The final supernatant was incubated with [^3H]-2-OG (10 µM) (ARC, MO, USA) at 37°C for 30 min as previously described, and reactions were stopped with a 2:1 (v/v) mixture of chloroform/methanol. [^3H]-glycerol release in the aqueous phase was measured by scintillation counting. […] Human supernatant (100 µg) was preincubated for 15 min at RT with 8 different concentrations of RG7774 (0.1-500 µM) in the incubation medium.

Human FAAH = target: T4, Human FAAH (Homo sapiens, UniProt O00519); experiment: Human FAAH assay; type: biochemical; details: positive control 100 nM; read-out: Mean ± SEM % inhibition of control, Human FAAH
T4 construct: purchased Cayman Chemical Company
Protocol: (§3) Mouse brain was homogenized in 50 mM Tris-HCl (pH 7.4) using a glass potter, centrifuged at 1000 g for 10 min, and the pellet was discarded. The supernatant (50 µg) was incubated with [^14C]-AEA (10 µM) (ARC, MO, USA) at 37°C for 15 min (Tris-HCl, pH 9.0) and reactions were stopped with a 2:1 (v/v) mixture of chloroform/methanol. [^14C]-ethanolamine release in the aqueous phase was measured as previously reported. Mouse supernatants (50 µg) were preincubated with RG7774 (10 µM) for 15 min and added directly to the incubation medium. Purified human FAAH (1.7 µg; Cayman Chemical Company, MI, USA) was incubated with [^14C]-AEA (10 µM) (ARC, MO, USA) at 37°C for 15 min (pH 9.0), as previously described. […] for 15 min with 8 different concentrations of RG7774 (0.1-500 µM) and added directly to the incubation medium (250 µL). Control experiments was carried out in the presence of the FAAH inhibitor, URB-597 (100 nM).

Mouse FAAH = target: T5, Mouse FAAH (Mus musculus, UniProt O08914); experiment: Mouse FAAH assay (brain); type: biochemical; details: positive control 100 nM; read-out: Mean ± SEM % inhibition of control, Mouse FAAH
T5 construct: Mouse brain was homogenized in 50 mM Tris-HCl (pH 7.4); from tissue; host or cells: mouse brain, 1000 g supernatant
Protocol: as §3

Mouse CB1R = Mouse CB1R (Mus musculus, UniProt P47746); experiment: Mouse cAMP assay in N18TG2 cells; type: cell-based; set-up: inhibition at 0.1 µM: reference not given here; details: N18TG2, read-out: Mean ± SEM % inhibition of control, Mouse CB1R (cAMP assay)
Protocol: The effect of RG7774 on the forskolin-stimulated accumulation of cAMP was determined using the LANCE ULTRAcAMP kit (PerkinElmer Life Sciences, MA, USA), according to the manufacturer’s instructions. Briefly, N18TG2 cells preincubated for 30 min with 1-methyl-3-isobutylxanthine (1 mM) were added to 0.5 µM forskolin preincubated with or without RG7774 for 15 min. Reactions were incubated for 30 min at 37°C and Time-resolved fluorescence was measured using a Victor V Multilabel counter (PerkinElmer Life Sciences). Data were transformed into cAMP concentrations using a standard curve.

T4 sequence (O00519 whole entry): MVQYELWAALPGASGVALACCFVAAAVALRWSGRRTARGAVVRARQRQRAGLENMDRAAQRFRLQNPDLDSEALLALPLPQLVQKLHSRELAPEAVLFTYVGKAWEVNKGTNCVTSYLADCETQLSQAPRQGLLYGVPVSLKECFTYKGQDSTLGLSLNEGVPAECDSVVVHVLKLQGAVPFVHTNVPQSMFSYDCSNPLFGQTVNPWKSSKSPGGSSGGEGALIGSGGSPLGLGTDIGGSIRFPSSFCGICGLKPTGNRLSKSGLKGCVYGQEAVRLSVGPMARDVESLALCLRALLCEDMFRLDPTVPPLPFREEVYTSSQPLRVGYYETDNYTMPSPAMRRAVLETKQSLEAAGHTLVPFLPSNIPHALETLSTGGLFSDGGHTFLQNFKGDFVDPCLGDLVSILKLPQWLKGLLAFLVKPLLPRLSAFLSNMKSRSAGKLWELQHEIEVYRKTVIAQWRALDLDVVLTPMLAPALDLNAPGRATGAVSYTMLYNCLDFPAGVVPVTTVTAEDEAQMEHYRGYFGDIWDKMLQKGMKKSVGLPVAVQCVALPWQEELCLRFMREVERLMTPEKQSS
T2 sequence (P09917 whole entry): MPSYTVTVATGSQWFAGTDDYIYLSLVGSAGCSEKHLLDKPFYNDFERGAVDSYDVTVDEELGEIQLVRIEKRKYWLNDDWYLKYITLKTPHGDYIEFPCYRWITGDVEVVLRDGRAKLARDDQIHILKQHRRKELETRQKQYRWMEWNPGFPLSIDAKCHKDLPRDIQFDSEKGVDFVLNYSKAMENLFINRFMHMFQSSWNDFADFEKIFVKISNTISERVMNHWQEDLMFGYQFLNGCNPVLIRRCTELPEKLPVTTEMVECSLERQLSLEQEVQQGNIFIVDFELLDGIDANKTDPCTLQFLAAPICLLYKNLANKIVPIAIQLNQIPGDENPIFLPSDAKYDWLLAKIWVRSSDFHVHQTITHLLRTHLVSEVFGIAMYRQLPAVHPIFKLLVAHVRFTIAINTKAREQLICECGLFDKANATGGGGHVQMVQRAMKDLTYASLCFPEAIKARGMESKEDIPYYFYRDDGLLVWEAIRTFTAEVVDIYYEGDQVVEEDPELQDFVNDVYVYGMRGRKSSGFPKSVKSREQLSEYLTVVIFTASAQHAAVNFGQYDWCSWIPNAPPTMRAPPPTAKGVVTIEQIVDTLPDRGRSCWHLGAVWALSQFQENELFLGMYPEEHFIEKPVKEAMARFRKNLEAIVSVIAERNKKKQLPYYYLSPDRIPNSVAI
Chain of Mouse CB1R (P47746 whole entry): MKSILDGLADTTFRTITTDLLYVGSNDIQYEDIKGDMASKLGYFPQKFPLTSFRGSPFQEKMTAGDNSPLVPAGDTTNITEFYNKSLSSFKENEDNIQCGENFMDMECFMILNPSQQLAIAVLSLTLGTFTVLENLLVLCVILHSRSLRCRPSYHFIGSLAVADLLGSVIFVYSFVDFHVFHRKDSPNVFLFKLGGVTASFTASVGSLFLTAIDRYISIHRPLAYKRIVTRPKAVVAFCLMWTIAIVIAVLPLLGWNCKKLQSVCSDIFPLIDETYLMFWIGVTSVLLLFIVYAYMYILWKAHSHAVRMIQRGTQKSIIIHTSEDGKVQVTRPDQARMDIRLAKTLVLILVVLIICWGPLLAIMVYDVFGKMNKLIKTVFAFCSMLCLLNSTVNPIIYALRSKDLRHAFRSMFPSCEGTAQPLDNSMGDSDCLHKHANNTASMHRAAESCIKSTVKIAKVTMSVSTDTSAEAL
T5 sequence (O08914 whole entry): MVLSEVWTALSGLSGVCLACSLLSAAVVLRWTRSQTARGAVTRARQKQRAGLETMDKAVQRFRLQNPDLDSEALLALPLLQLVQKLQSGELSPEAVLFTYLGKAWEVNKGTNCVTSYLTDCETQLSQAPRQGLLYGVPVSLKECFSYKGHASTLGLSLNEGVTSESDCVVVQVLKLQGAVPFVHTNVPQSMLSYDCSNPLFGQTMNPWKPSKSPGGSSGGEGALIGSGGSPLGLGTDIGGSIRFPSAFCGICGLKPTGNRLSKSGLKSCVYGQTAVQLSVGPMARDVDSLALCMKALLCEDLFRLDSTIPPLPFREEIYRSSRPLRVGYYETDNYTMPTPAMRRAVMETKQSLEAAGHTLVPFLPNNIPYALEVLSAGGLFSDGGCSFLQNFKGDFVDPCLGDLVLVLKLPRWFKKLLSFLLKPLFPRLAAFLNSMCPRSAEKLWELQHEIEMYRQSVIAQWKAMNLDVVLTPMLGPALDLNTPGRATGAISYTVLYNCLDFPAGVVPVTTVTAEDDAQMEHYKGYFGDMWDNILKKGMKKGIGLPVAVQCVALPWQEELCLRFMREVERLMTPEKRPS
T1 sequence (P18054 whole entry): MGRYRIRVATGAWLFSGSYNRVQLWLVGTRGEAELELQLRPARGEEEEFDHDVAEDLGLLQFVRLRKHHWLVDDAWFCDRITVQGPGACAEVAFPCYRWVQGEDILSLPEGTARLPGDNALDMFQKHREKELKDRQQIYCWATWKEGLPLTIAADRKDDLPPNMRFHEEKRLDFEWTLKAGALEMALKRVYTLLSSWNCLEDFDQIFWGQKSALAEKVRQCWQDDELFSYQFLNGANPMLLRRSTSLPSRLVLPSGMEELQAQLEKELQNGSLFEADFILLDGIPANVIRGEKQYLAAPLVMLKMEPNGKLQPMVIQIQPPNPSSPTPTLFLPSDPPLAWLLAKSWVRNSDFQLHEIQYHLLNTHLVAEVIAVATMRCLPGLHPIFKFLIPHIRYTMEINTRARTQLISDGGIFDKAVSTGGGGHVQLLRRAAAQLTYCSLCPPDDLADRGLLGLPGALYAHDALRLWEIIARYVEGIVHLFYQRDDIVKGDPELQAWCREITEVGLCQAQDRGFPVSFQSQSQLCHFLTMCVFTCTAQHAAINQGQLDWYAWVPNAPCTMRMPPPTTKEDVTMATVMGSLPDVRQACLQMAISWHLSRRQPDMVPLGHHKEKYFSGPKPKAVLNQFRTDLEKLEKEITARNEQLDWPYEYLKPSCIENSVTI
T3 sequence (Q99685 whole entry): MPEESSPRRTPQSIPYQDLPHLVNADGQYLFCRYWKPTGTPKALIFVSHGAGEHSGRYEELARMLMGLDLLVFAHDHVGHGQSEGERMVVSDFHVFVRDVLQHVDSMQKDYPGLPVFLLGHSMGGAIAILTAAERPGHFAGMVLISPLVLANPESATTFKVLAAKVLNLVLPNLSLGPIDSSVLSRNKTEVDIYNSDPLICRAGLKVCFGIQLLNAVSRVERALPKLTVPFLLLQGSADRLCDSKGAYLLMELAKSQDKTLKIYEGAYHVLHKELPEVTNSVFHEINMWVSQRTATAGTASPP

Q: With `CC(C)(C)OC(=O)N1CCN(C(=O)n2cc(-c3ccc(OC(F)(F)F)cc3)nn2)C(c2ccccc2)C1` (stereo not shown) [DO53, reference compound] as the molecule, how does the “Mean ± SEM % inhibition of control, Human DAGL” value (Human DAGL) read?
A: The value was 103.1 ± 13.2%.

Q: And the “Mean ± SEM % inhibition of control, Mouse DAGL” value (Mouse DAGL)?
A: The value was 60.4 ± 4.3%.

Q: SR144528 [reference compound] was tested. Which “inhibition of RG7774-induced increase in maximal normalized cell index” value (Jurkat cells) did it give?
A: The value was “fully inhibited”.

Q: How did the “Mean ± SEM % inhibition of control, Human 12-LOX” value (Human 12-LOX) turn out when `CC(Cc1ccc(O)c(O)c1)C(C)Cc1ccc(O)c(O)c1` (stereo not shown) [NDGA, reference compound] was run?
A: The value was 84.6 ± 0.7%.

Q: What about the “Mean ± SEM % inhibition of control, Human 5-LOX” value (Human 5-LOX) of the same molecule?
A: The value was 126.6 ± 2.4%.

Q: For `CCCCCCCC/C=C\CCCCCCCC(=O)N[C@H](CO)Cc1ccc(O)cc1` [OMDM-1, reference compound], which “Mean ± SEM % inhibition of control, Human EMT” value (Human EMT) is on record?
A: The value was 95.5 ± 0.4%.

Q: For `O=C(Oc1ccc([N+](=O)[O-])cc1)N1CCC(C(O)(c2ccc3c(c2)OCO3)c2ccc3c(c2)OCO3)CC1` [JZL-184, reference compound], which “Mean ± SEM % inhibition of control, Human MAGL” value (Human MAGL) is on record?
A: The value was 84.3 ± 3.4%.

Q: With `NC(=O)c1cccc(-c2cccc(OC(=O)NC3CCCCC3)c2)c1` [URB-597, reference compound] as the molecule, how does the inhibition at 0.1 µM (Human FAAH) read?
A: Its inhibition at 0.1 µM is 92.8 ± 6.1%.

Q: What about the inhibition at 0.1 µM (Mouse FAAH) of the same molecule?
A: Its inhibition at 0.1 µM is 83.2 ± 4.6%.

Q: How did the inhibition at 0.1 µM (Mouse CB1R) turn out when `CCCCCCC(C)(C)c1ccc([C@@H]2C[C@H](O)CC[C@H]2CCCO)c(O)c1` [CP-55940, reference compound] was run?
A: The inhibition at 0.1 µM was 91.5 ± 2.6%.
